Patent US20060110370A1, “Treatments for reduction of cytotoxicity and viral contamination of implantable medical devices” (priority 2004, published 2006)

Legend:
[1] = Calcification after subcutaneous implantation in rats (Example 2), porcine wall; assay type: in vivo, Sprague-Dawley rats; conditions: retrieved after 60 days of implantation, about 16 hours treatment
Description: (§1) In a class 100 laminar flow bench, pieces of glutaraldehyde-fixed bovine pericardium tissue (Mitroflow Inc.; Richmond, British Columbia, Canada) porcine cusp tissue (Labcor; Belo Horizonte, Brazil) and porcine wall tissue (Labcor Inc.) were transferred into sterile tubes containing 1,2-octanediol solutions (5% 1,2-octanediol (Aldrich Chemical), 40% ethanol and 55% 10 mM HEPES buffer). The tubes were transferred to a 37° C. incubator and maintained at 37° C. with gentle agitation for about 16 hours. After the treatment, the samples were transferred to solutions comprising 22% ethanol in 10 mM HEPES and stored for 14 days at 4° C. The final tissue to volume ratio for all treatments was approximately 27 ml/g. For N-methyl pyrolidinone (NMP) treatments, pieces of glutaraldehyde-fixed bovine pericardium tissue (Mitroflow Inc.), porcine cusp tissue (Labcor Inc.) and porcine wall tissue (Labcor Inc.) were transferred into sterile tubes containing NMP. The tubes were incubated at room temperature for about 16 hours with occasional manual agitation. After the treatment, the tissue samples were transferred to 22% HEPES-buffered ethanol solutions and stored for 14 days at 4° C. […] Seven rats per treatment group were analyzed. […] After retrieval, the samples were analyzed for their calcium and phosphorus contents using a standard ICP methodology.

[2] = Calcification after subcutaneous implantation in rats (Examples 2 and 3), bovine pericardium; assay type: in vivo, Sprague-Dawley rats; conditions: retrieved after 60 days of implantation, about 16 hours treatment
Description: as §1, with “agitation.” for “agitation. After the treatment, the tissue samples were transferred to 22% HEPES-buffered ethanol solutions and stored for 14 days at 4° C.”, “methodology. […] Seven rats per treatment group were analyzed. […] After retrieval, the samples were analyzed for their calcium and phosphorus contents by ICP.” for “methodology.”

[3] = Calcification after subcutaneous implantation in rats (Example 2), porcine cusp; assay type: in vivo, Sprague-Dawley rats; conditions: retrieved after 60 days of implantation, about 16 hours treatment
Description: as §1

[4] = tested on: five viruses (A-MuLV, Inf A, PPV, PrV, REO-3); test: Viral inactivation, panel of five viruses (remaining virus); assay type: cell-based; conditions: after 47 days of exposure
[5] = tested on: Amphotropic Murine Leukemia Virus (A-MuLV); test: Viral inactivation of spiked porcine valve and pericardium, A-MuLV; assay type: cell-based; conditions: 0.2% glutaraldehyde at 47 days; average for porcine valve and pericardium material
Reovirus Type 3 (REO-3) = test: Viral inactivation of spiked porcine valve and pericardium, REO-3; assay type: cell-based; conditions: 0.2% glutaraldehyde at 47 days; average for porcine valve and pericardium material
[6] = tested on: Influenza A Virus (Inf A); test: Viral inactivation of spiked porcine valve and pericardium, Inf A; assay type: cell-based; conditions: 0.2% glutaraldehyde at 47 days; average for porcine valve and pericardium material
Pseudorabies Virus (PrV) = assay type: cell-based; conditions: 0.2% glutaraldehyde at 47 days; average for porcine valve and pericardium material
Porcine Parvovirus (PPV) = test: Viral inactivation of spiked porcine valve and pericardium, PPV; assay type: cell-based; conditions: 0.2% glutaraldehyde at 47 days; average for porcine valve and pericardium material

SMILES	Calcuim (μg/mg tissue) [1]	Phosphorus (μg/mg tissue) [1]	Calcuim (μg/mg tissue) [2]	Phosphorus (μg/mg tissue) [2]	Calcuim (μg/mg tissue) [3]	Phosphorus (μg/mg tissue) [3]	viruses present on porcine valves or pericardium materials [4]	Viral log reduction, A-MuLV [5]	Viral log reduction, REO-3 (Reovirus Type 3 (REO-3))	Viral log reduction, Inf A [6]	Viral log reduction, PrV (Pseudorabies Virus (PrV))	Viral log reduction, PPV (Porcine Parvovirus (PPV))
CN1CCCC1=O [NMP, N-methyl pyrolidinone]	111.9 μg/mg tissue	55.2 μg/mg tissue	8.0 μg/mg tissue	3.4 μg/mg tissue	14.7 μg/mg tissue	7.9 μg/mg tissue						
O=CCCCC=O [Glutaraldehyde, glutaraldehyde]							No viruses were present	4.15 log	5.00 log	3.5 log	5.51 log	5.03 log
